These results are taken from US7368576B2, “Dipeptidyl peptidase IV inhibitors and their uses as anti-cancer agents” (Probiodrug AG, priority 2001, dated 2008).

Holding throughout (assay type): biochemical
Test [1] addresses T1, dipeptidyl peptidase IV from porcine kidney (Sus scrofa, UniProt P22411).
T1 construct: dipeptidyl peptidase IV from porcine kidney; from tissue; host or cells: porcine kidney
Briefly: Ki determination, DPIV inhibition (glycylprolyl-4-nitroaniline). As to conditions: HEPES pH7.6, 30° C.

A further test deals with purified porcine DPIV (Sus scrofa, UniProt P22411). Briefly: Determination of IC50 values, DPIV (Gly-Pro-pNA). As to conditions: Gly-Pro-pNA 0.4 mM, HEPES pH7.6, 30° C. The protocol:
100 μl inhibitor stock solution were mixed with 100 μl buffer (HEPES pH7.6) and 50 μl substrate (Gly-Pro-pNA, final concentration 0.4 mM) and preincubated at 30° C. Reaction was started by addition of 20 μl purified porcine DPIV. Formation of the product pNA was measured at 405 nm over 10 min using the HTS 7000Plus plate reader (Perkin Elmer) and slopes were calculated. The final inhibitor concentrations ranged between 1 mM and 30 nM. For calculation of IC50 GraFit 4.0.13 (Erithacus Software) was used.

Test [2] has as its target T2, recombinant human prolyl oligopeptidase (POP) (Homo sapiens, UniProt P48147).
T2 construct: made in house; host or cells: E. coli
T2 sequence (P48147 1-710): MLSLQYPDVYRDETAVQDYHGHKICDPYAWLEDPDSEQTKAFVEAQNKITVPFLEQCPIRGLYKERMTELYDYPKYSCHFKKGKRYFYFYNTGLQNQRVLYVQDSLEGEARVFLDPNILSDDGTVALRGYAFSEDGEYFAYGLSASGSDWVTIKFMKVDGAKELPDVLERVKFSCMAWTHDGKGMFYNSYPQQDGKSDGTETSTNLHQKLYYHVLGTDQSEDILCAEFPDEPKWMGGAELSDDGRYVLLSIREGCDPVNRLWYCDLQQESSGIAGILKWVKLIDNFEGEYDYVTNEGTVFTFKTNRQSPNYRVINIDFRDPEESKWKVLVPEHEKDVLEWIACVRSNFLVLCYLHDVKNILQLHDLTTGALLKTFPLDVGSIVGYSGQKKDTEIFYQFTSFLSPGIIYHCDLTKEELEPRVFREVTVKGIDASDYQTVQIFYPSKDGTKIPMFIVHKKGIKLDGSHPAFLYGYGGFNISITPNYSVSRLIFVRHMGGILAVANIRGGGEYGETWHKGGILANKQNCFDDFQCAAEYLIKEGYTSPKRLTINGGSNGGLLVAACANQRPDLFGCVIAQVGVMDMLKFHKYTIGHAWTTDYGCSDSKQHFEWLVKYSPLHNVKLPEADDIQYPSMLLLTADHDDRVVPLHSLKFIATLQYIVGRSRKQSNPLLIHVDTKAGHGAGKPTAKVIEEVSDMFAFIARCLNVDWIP
Description: Cross reacting enzymes: prolyl oligopeptidase. As to conditions: concentration range 1*10^−4 M-5*10^−8 M. The protocol:
Substrates are peptides with a molecular weight up to 3000 Da. The enzyme used was a recombinant human prolyl oligopeptidase. Recombinant expression was performed in E. coli under standard conditions as described elsewhere in the state of the art.
100 μl glutaminyl pyrrolidine or glutaminyl thiazolidine in an concentration range of 1*10^−4 M-5*10^−8 M were admixed with 100 μl μl buffer solution (40 mM HEPES, pH7.6, 0.015% Brij, 1 mM DTT) and 20 μl POP solution. The assay mixture was pre-incubated at 30° C. for 15 min. After pre-incubation, 50 μl glycylprolylprolyl-4-nitroaniline solution (0.29 mM) was added and measurement of yellow color development due to 4-nitroaniline release was performed at 30° C. and λ=405 nm for 10 min using a plate reader (sunrise, Tecan, Crailsheim, Germany). The IC50-values were calculated using Graphit 4.0.15 (Erithacus Software, Ltd., UK).

T1 sequence (P22411 whole entry): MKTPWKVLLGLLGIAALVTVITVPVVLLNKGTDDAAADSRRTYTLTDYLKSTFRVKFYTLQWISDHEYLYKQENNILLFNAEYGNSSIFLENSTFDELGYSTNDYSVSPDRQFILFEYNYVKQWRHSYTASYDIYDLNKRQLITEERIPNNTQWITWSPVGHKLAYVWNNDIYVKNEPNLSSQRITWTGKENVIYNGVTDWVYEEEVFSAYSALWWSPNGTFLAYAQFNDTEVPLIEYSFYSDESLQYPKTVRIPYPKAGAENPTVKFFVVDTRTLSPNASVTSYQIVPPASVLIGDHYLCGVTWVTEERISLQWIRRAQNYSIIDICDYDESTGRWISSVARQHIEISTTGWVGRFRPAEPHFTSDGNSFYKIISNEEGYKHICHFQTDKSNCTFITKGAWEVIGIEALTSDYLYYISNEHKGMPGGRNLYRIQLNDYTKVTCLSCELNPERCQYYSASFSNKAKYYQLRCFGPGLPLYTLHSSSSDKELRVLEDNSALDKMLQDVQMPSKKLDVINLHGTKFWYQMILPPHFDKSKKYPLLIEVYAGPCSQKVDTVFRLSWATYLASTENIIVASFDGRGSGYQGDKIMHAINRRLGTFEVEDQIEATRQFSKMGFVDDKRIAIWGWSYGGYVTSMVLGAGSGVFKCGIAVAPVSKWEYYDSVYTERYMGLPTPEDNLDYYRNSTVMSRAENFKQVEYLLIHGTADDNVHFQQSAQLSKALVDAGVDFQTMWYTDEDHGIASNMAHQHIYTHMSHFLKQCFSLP
Sequence of purified porcine DPIV (P22411 whole entry): as above

In the case of `NC(=O)CCC(N)C(=O)N1CCCC1` (stereo not drawn) [Gln-Pyrr, glutaminyl pyrrolidine], the Ki in test [1] came out at 2.26 µM. On purified porcine DPIV, the IC50 came out at 15 µM. In addition, the “inhibition of POP activity” value in test [2] is recorded as “No inhibition”.

What is called Ki is a measure of affinity in units of concentration, obtained from inhibition or displacement. A lower Ki goes with higher affinity. By IC50 is commonly meant the point on the concentration scale where inhibition reaches its midpoint. Low values mean greater potency in that assay, high ones weaker potency in that assay.
